Columns and labels:
Test in all cases: Test B preemergence/postemergence greenhouse plant response rating 0 to 10
[1] = tested on: wild buckwheat; format: in vivo, Polygonum convolvulus; conditions: 0 to 10 scale
Method in brief: (§1)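 Both application timings were run together: seeds got compound preemergence, and established seedlings (two to eighteen cm) got it postemergence. Non-phytotoxic solvent carried the chemical. Ratings are visual, versus controls, at twelve to sixteen days.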

[2] = tested on: corn; format: in vivo, Zea mays; conditions: for Plant response rating, Corn: 0 to 10 scale
Method in brief: as §1

[3] = tested on: cheatgrass; format: in vivo, Bromus secalinus; conditions: for Plant response rating, Cheatgrass: 0 to 10 scale
Method in brief: as §1

[4] = tested on: chickweed; format: in vivo, Stellaria media; conditions: for Plant response rating, Chickweed: 0 to 10 scale
Method in brief: as §1

[5] = tested on: wild oat; format: in vivo, Avena fatua; conditions: 0 to 10 scale
Method in brief: as §1

[6] = tested on: giant foxtail; format: in vivo, Setaria faberii; conditions: 0 to 10 scale
Method in brief: as §1

[7] = tested on: sorghum; format: in vivo, Sorghum bicolor; conditions: 0 to 10 scale
Method in brief: as §1

CC(C)Oc1cc(-c2nn3c(c2Cl)CCCC3)c(F)cc1Cl [Compound 21]
Plant response rating, Wild buckwheat ([1]; POSTEMERGENCE, Rate 50 g/ha): 10 | Plant response rating, Wild buckwheat ([1]; POSTEMERGENCE, Rate 200 g/ha): 10 | Plant response rating, Wild buckwheat ([1]; PREEMERGENCE, Rate 50 g/ha): 7 | Plant response rating, Wild buckwheat ([1]; Rate 200 g/ha, PREEMERGENCE): 9 | Plant response rating (0 to 10 scale), Corn ([2]; POSTEMERGENCE, Rate 50 g/ha): 5 | Plant response rating, Corn ([2]; POSTEMERGENCE, Rate 200 g/ha): 6 | Plant response rating, Corn ([2]; PREEMERGENCE, Rate 50 g/ha): 0 | Plant response rating, Corn ([2]; Rate 200 g/ha, PREEMERGENCE): 1 | Plant response rating (0 to 10 scale), Cheatgrass ([3]; POSTEMERGENCE, Rate 50 g/ha): 5 | Plant response rating, Cheatgrass ([3]; POSTEMERGENCE, Rate 200 g/ha): 8 | Plant response rating, Cheatgrass ([3]; PREEMERGENCE, Rate 50 g/ha): 4 | Plant response rating, Cheatgrass ([3]; Rate 200 g/ha, PREEMERGENCE): 6 | Plant response rating (0 to 10 scale), Chickweed ([4]; POSTEMERGENCE, Rate 50 g/ha): 8 | Plant response rating, Chickweed ([4]; POSTEMERGENCE, Rate 200 g/ha): 7 | Plant response rating, Chickweed ([4]; PREEMERGENCE, Rate 50 g/ha): 2 | Plant response rating, Chickweed ([4]; Rate 200 g/ha, PREEMERGENCE): 7 | Plant response rating, Wild oat ([5]; POSTEMERGENCE, Rate 50 g/ha): 4 | Plant response rating, Wild oat ([5]; POSTEMERGENCE, Rate 200 g/ha): 6 | Plant response rating, Wild oat ([5]; Rate 200 g/ha, PREEMERGENCE): 6 | Plant response rating, Giant foxtail ([6]; POSTEMERGENCE, Rate 50 g/ha): 4 | Plant response rating, Giant foxtail ([6]; POSTEMERGENCE, Rate 200 g/ha): 7 | Plant response rating, Giant foxtail ([6]; PREEMERGENCE, Rate 50 g/ha): 5 | Plant response rating, Giant foxtail ([6]; Rate 200 g/ha, PREEMERGENCE): 9 | Plant response rating, Sorghum ([7]; POSTEMERGENCE, Rate 50 g/ha): 5 | Plant response rating, Sorghum ([7]; POSTEMERGENCE, Rate 200 g/ha): 6 | Plant response rating, Sorghum ([7]; PREEMERGENCE, Rate 50 g/ha): 0 | Plant response rating, Sorghum ([7]; Rate 200 g/ha, PREEMERGENCE): 2

Fc1cc(Cl)c(OCc2ccccc2)cc1-c1nn2c(c1Cl)CCCC2 [Compound 22]
Plant response rating, Wild buckwheat ([1]; POSTEMERGENCE, Rate 50 g/ha): 10 | Plant response rating, Wild buckwheat ([1]; POSTEMERGENCE, Rate 200 g/ha): 10 | Plant response rating, Wild buckwheat ([1]; PREEMERGENCE, Rate 50 g/ha): 2 | Plant response rating, Wild buckwheat ([1]; Rate 200 g/ha, PREEMERGENCE): 5 | Plant response rating (0 to 10 scale), Corn ([2]; POSTEMERGENCE, Rate 50 g/ha): 3 | Plant response rating, Corn ([2]; POSTEMERGENCE, Rate 200 g/ha): 4 | Plant response rating, Corn ([2]; PREEMERGENCE, Rate 50 g/ha): 2 | Plant response rating, Corn ([2]; Rate 200 g/ha, PREEMERGENCE): 4 | Plant response rating (0 to 10 scale), Cheatgrass ([3]; POSTEMERGENCE, Rate 50 g/ha): 3 | Plant response rating, Cheatgrass ([3]; POSTEMERGENCE, Rate 200 g/ha): 4 | Plant response rating, Cheatgrass ([3]; PREEMERGENCE, Rate 50 g/ha): 0 | Plant response rating, Cheatgrass ([3]; Rate 200 g/ha, PREEMERGENCE): 3 | Plant response rating, Chickweed ([4]; POSTEMERGENCE, Rate 200 g/ha): 7 | Plant response rating, Chickweed ([4]; PREEMERGENCE, Rate 50 g/ha): 0 | Plant response rating, Chickweed ([4]; Rate 200 g/ha, PREEMERGENCE): 2 | Plant response rating, Wild oat ([5]; POSTEMERGENCE, Rate 50 g/ha): 3 | Plant response rating, Wild oat ([5]; POSTEMERGENCE, Rate 200 g/ha): 3 | Plant response rating, Wild oat ([5]; Rate 200 g/ha, PREEMERGENCE): 1 | Plant response rating, Giant foxtail ([6]; POSTEMERGENCE, Rate 50 g/ha): 3 | Plant response rating, Giant foxtail ([6]; POSTEMERGENCE, Rate 200 g/ha): 4 | Plant response rating, Giant foxtail ([6]; PREEMERGENCE, Rate 50 g/ha): 3 | Plant response rating, Giant foxtail ([6]; Rate 200 g/ha, PREEMERGENCE): 9 | Plant response rating, Sorghum ([7]; POSTEMERGENCE, Rate 50 g/ha): 5 | Plant response rating, Sorghum ([7]; POSTEMERGENCE, Rate 200 g/ha): 5 | Plant response rating, Sorghum ([7]; PREEMERGENCE, Rate 50 g/ha): 0 | Plant response rating, Sorghum ([7]; Rate 200 g/ha, PREEMERGENCE): 3

CCCOc1cc(-c2nn3c(c2Cl)CCCC3)c(F)cc1Cl [Compound 23]
Plant response rating, Wild buckwheat ([1]; POSTEMERGENCE, Rate 50 g/ha): 10 | Plant response rating, Wild buckwheat ([1]; POSTEMERGENCE, Rate 200 g/ha): 10 | Plant response rating, Wild buckwheat ([1]; PREEMERGENCE, Rate 50 g/ha): 0 | Plant response rating, Wild buckwheat ([1]; Rate 200 g/ha, PREEMERGENCE): 10 | Plant response rating (0 to 10 scale), Corn ([2]; POSTEMERGENCE, Rate 50 g/ha): 4 | Plant response rating, Corn ([2]; POSTEMERGENCE, Rate 200 g/ha): 6 | Plant response rating, Corn ([2]; PREEMERGENCE, Rate 50 g/ha): 0 | Plant response rating, Corn ([2]; Rate 200 g/ha, PREEMERGENCE): 6 | Plant response rating (0 to 10 scale), Cheatgrass ([3]; POSTEMERGENCE, Rate 50 g/ha): 6 | Plant response rating, Cheatgrass ([3]; POSTEMERGENCE, Rate 200 g/ha): 8 | Plant response rating, Cheatgrass ([3]; PREEMERGENCE, Rate 50 g/ha): 4 | Plant response rating, Cheatgrass ([3]; Rate 200 g/ha, PREEMERGENCE): 6 | Plant response rating, Chickweed ([4]; POSTEMERGENCE, Rate 200 g/ha): 9 | Plant response rating, Chickweed ([4]; PREEMERGENCE, Rate 50 g/ha): 0 | Plant response rating, Chickweed ([4]; Rate 200 g/ha, PREEMERGENCE): 6 | Plant response rating, Wild oat ([5]; POSTEMERGENCE, Rate 50 g/ha): 3 | Plant response rating, Wild oat ([5]; POSTEMERGENCE, Rate 200 g/ha): 5 | Plant response rating, Wild oat ([5]; Rate 200 g/ha, PREEMERGENCE): 6 | Plant response rating, Giant foxtail ([6]; POSTEMERGENCE, Rate 50 g/ha): 5 | Plant response rating, Giant foxtail ([6]; POSTEMERGENCE, Rate 200 g/ha): 7 | Plant response rating, Giant foxtail ([6]; PREEMERGENCE, Rate 50 g/ha): 6 | Plant response rating, Giant foxtail ([6]; Rate 200 g/ha, PREEMERGENCE): 9 | Plant response rating, Sorghum ([7]; POSTEMERGENCE, Rate 50 g/ha): 4 | Plant response rating, Sorghum ([7]; POSTEMERGENCE, Rate 200 g/ha): 6 | Plant response rating, Sorghum ([7]; PREEMERGENCE, Rate 50 g/ha): 0 | Plant response rating, Sorghum ([7]; Rate 200 g/ha, PREEMERGENCE): 2

Source: US6358885B1, “Substituted phenylheterocyclic herbicides” (Mississippi State University, priority 1992, dated 2002)
